Experimental data reported in patent US8597646B2, “Methods and compositons featuring TGF-beta antagonists for the treatment of marfan syndrome and associated disorders” (The Johns Hopkins University, priority 2005, dated 2013).
Entries after “also recorded” stand apart in the source; their conditions may differ.

Assays:
[1] = system: young patients with an aggressive rate of aortic growth; test: Losartan in young patients with aggressive rate of aortic growth despite standard therapy; format: in vivo, human; conditions: n=8, despite β-adrenergic/ACE blockade, monopotassium salt
Protocol: Markers of TGFβ antagonism have included reduced plasma levels of free TGFβ, reduced intracellular initiation of the TGFβ signaling cascade, and reduced tissue expression of TGFβ-responsive genes. […] Three independent measurements of the aortic root were made from the long axis echo view in systole at each of 3 time points (baseline, 2 and 4 months of treatment; FIG. 8A). All analyses were performed blinded to genotype and treatment arm. […] This represents the first therapeutic strategy for MFS that derives from interrogation of disease pathogenesis and the first possibility for primary prevention of disease manifestations.

Fbn1C1039G/+ mice = test: Lung distal airspace caliber (mean linear intercept) in Fbn1C1039G/+ mice treated postnatally with losartan; format: in vivo, mouse; conditions: for Distal airspace caliber / alveolar septation, in words: postnatal losartan, monopotassium salt
Source text: This abnormality correlated with increased TGF-β signaling and was prevented by prenatal administration of TGF-β NAb.

mdx mice [2] = test: Forelimb and hindlimb grip strength and fatigue in mdx mice; format: in vivo, mouse
Protocol: (§1) Mice were continued on oral therapy for 6 months and sacrificed. […] Age-matched wild-type and mdx mice (placebo-treated) served as a control group. After 6 months of treatment, forelimb and hindlimb grip strength was assessed using an automated grip strength meter (Columbus Instruments, Columbus, Ohio). The experiments for forelimb and hindlimb grip strength testing were conducted at different days allowing for a minimum recovery period of 10 days. Total peak force (in Newtons) was determined by an electronic strain gauge as previously described and corrected for body weight (Wagner, K. R., et al. (2002) Ann Neurol 52, 832-6). Five measurements within 2 minutes were taken from each animal. The three highest measurements for each animal were averaged to give the strength score. The degree of fatigue was calculated by comparing the first two pulls to the last two pulls with the decrement between pulls 1+2 and pulls 4+5 providing a measure of fatigue. Similarly, functional measurements were performed in 6 month old fibrillin-1 deficient mice (Fbn1^mgR) (Pereira, L. et al. (1997) Nat Genet. 17, 218-22) after 5 months of treatment.

C1039G/+ mice = test: Aortic wall histology (elastic matrix architecture) in treated C1039G/+ mice; format: in vivo, mouse; conditions: 4 months of treatment
[3] = system: TGFβ signaling (pSmad2/3, periostin); test: Immunofluorescence of TGFβ signaling markers (pSmad2/3, periostin, TSP1) in skeletal muscle of fibrillin-1 deficient mice; format: in vivo, mouse
Protocol: Immunofluorescent studies were performed as previously described (Cohn, R. D. et al. (2002) Cell 110, 639-48). […] The following antibodies were used in this study: goat polyclonal anti-pSmad 2/3, rabbit polyclonal anti c-met and rabbit polyclonal anti-myogenin (all from Santa Cruz Biotechnology Inc.); rabbit polyclonal anti-pSmad2 (#3104, Cell Signal) rat polyclonal anti-lamininyl, rabbit polyclonal anti-dystrophin, rabbit polyclonal antithrombospondin-1 and rabbit polyclonal anti-periostin (all from Abcam); rabbit polyclonal anti-fibrillin-1 (pAb 9543) (Judge, D. P. et al. (2004) J Clin Invest 114, 172-81); goat polyclonal anti-vimentin (Sigma) and, mouse monoclonal anti-beta-sarcoglycan mouse monoclonal anti-developmental myosin (Novocastra). Anti a-dystroglycan antibody IIH6 was generously supplied by Dr. Kevin Campbell, Iowa. Secondary Alexa fluor donkey anti-rabbit, anti-rat, anti mouse IgM and IgG1 and anti-goat conjugated antibodies (Molecular probes) were applied for 1 hour at room temperature. Nuclei were stained with DAPI for 5 minutes, and inverted coverslips were mounted onto glass slides using Cytoseal (Vector Laboratories).
Skeletal muscle from Fbn1^C1039G/+ mice was assessed for increased TGFβ signaling by immunohistochemical staining for phosphorylated Smad2/3 (pSmad2/3). […]

mdx mice [4] = test: Long-term losartan in mdx mice: fibrosis and centrally located nuclei in diaphragm and gastrocnemius; format: in vivo, mouse
Protocol: as §1
For morphometric analyses, skeletal muscle was flash frozen in cooled isopentane and mounted in Tragacanth (Sigma Aldrich, USA). Subsequently, 10 μm sections were stained with hematoxylin and eosin. Muscle fibers were counted in a defined area (9 mm^2) of the tibialis anterior muscle of 10-day-old wild-type (n=3) and Fbn1C1039G/C1039G mice (n=6) and fiber diameter was determined by measuring the shortest fiber axis within cross-sections of the tibialis anterior muscle, counting a total of 850-1500 fibers. The cross sectional area of undamaged and regenerating myofibers of the tibialis anterior muscle from wild-type and Fbn1^C1039G/+ mice was expressed as a distribution of the percentage of the total number of myofibers analyzed (850-1500) (Horsley, V. et al (2003) Cell 113, 483-94). Sections of skeletal muscle were taken along the same anatomical region of the mid-belly of the tibialis anterior muscle. The number of c-met, M-cadherin- and myogeninpositive cells in 50 fields of the tibialis anterior muscle mid-belly area was scored using the x40 objective. At least six animals per genotype were scored and all analyses were performed by investigators blinded to genotype and treatment group. All images were taken using an Eclipse E400 microscope (Nikon Inc.) and cross-sectional area measurements were determined using IPLAB software (Scanalytics, Fairfax, Va.). Neonatal myosin-positive fibers after cardiotoxin challenge were quantified by counting 900-1240 fibers per toxin-challenged muscle (n=4). For quantification of fibrotic tissue formation in toxin challenged mice (n=4), immunofluorescent staining for vimentin was performed. Five sections throughout the entire tibialis anterior muscle were analyzed at low magnification and vimentin positive areas were calculated as a percentage of the total muscle area using the NIH Scion image software, public domain. Similarly, van-Gieson and vimentin stained sections were used to delineate the percentage of fibrotic versus total muscle area in diaphragm and gastrocnemius of long-term losartan-treated, placebo-treated mdx and wild-type mice (n=6 each group) using the NIH Scion software. For evaluation of percent centrally located nuclei a total of 1100-1300 muscle fibers per diaphragm of each mouse (n=6, each group) and a total of 1900-2200 muscle fibers per gastrocnemius of each mouse (n=6, each group) were calculated.

CCCCc1nc(Cl)c(CO)n1Cc1ccc(-c2ccccc2-c2nnn[nH]2)cc1.[K] [losartan, 2-butyl-4-chloro-1-[p-(o-1H-tetrazol-5-ylphenyl)benzyl]imidazole-5-methanol monopotassium salt]
Response of aortic growth in patients ([1]; listed as Losartan): effective | Response of aortic growth in patients [1]: remarkable response | Mean linear intercept (Fbn1C1039G/+ mice; losartan from 7 weeks of age, 6 months, placebo 84.3±15, wild-type 41.3±5): 53.9±12 μm | Distal airspace caliber / alveolar septation, in words (Fbn1C1039G/+ mice; listed as Losartan): rescued; also recorded: normalization of the caliber of the distal airspace | Distal airspace caliber / alveolar septation, in words (Fbn1C1039G/+ mice): reduced | Forelimb grip strength (peak force), male (mdx mice [2]; 6 months of losartan, untreated mdx 1.25±0.15): 1.64±0.29 N | Forelimb grip strength (peak force), female (mdx mice [2]; 6 months of losartan, untreated mdx 1.32±0.12): 1.41±0.15 N | Hindlimb grip strength (peak force), female (mdx mice [2]; 6 months of losartan, untreated mdx 1.39±0.14): 1.79±0.14 N | Hindlimb grip strength (peak force), male (mdx mice [2]; 6 months of losartan, untreated mdx 1.45±0.19): 1.89±0.23 N | Muscle fatigue, forelimb test, female (mdx mice [2]; 6 months of losartan, untreated mdx 34.7±5.7): 15.2±6% | Muscle fatigue, forelimb test, male (mdx mice [2]; 6 months of losartan, untreated mdx 36.3±6.5): 16.3±5% | Muscle fatigue, hindlimb test, female (mdx mice [2]; 6 months of losartan, untreated mdx 37.6±6): 17.1±4% | Muscle fatigue, hindlimb test, male (mdx mice [2]; 6 months of losartan, untreated mdx 39.5±6): 16.2%±5 | Muscle fatigue in response to repetitive challenge, in words (mdx mice [2]; 6 months of treatment): significantly less muscle fatigue | Grip strength versus untreated mdx mice, in words (mdx mice [2]; 6 months of treatment, male and female): increased forelimb and hindlimb grip strength | Elastic matrix architecture / histologic parameters of the aorta (C1039G/+ mice): normalized | Nuclear pSmad2/3 and sarcolemmal periostin in uninjured skeletal muscle ([3]; Fbn1C1039G/+ mice, steady state): abrogation of TGFβ signaling | Expression of thrombospondin-1 (TSP1) and periostin in skeletal muscle ([3]; losartan-treated fibrillin-1 deficient mice): Decreased expression | Muscle fibers containing centrally located nuclei, diaphragm and gastrocnemius, in words (mdx mice [4]; 6 months of losartan): increased percentage | Centrally located nuclei, gastrocnemius (mdx mice [4]; 6 months of losartan, mdx 25±5, wild-type 2±0.5): 36%±+6 | Fibrotic area, diaphragm (mdx mice [4]; 6 months of losartan, mdx 32±5, wild-type 4±1): 18%±4 | Percentage of centrally located nuclei, diaphragm (mdx mice [4]; 6 months of losartan, mdx 35±5, wild-type 2±0.5): 48%±6 | Fibrosis, gastrocnemius (mdx mice [4]; 6 months of losartan, mdx 75±6.4, wild-type 4±2): 89%±5.8 | Myopathic disease progression / steady-state architecture in mdx mice (mdx mice [4]; long-term losartan, 9 month-old mdx mice, monopotassium salt): significant attenuation of disease progression; also recorded: improved steady-state architecture; also recorded: attenuates myopathic disease progression
